# Assay results published in PubChem BioAssay (NCI).
#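 Growth conditions: 96-well plates. Treatment: test compound, 48 hours, 5 concentrations. Analysis: linear interpolation between bracketing concentrations; unreached endpoints set to highest concentration. GI50 = concentration required for 50% inhibition of growth. At the TGI there is no net growth.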
# Columns and labels:
# Assay in all cases: NCI-60 cell line screen, 48 h
# [1] = system: COLO 205 colon
# [2] = system: HT29 colon
# [3] = system: HOP-92 NSCLC
# [4] = system: TK-10 renal
# [5] = system: MOLT-4 leukemia
# [6] = system: UACC-62 melanoma
# [7] = system: HS 578T breast
# [8] = system: OVCAR-5 ovarian
# [9] = system: OVCAR-4 ovarian
# [10] = system: OVCAR-3 ovarian
# [11] = system: T-47D breast
# [12] = system: LOX IMVI melanoma
# [13] = system: SK-OV-3 ovarian
# [14] = system: KM12 colon
# [15] = system: NCI-H460 lung
# [16] = system: OVCAR-8 ovarian
# [17] = system: SF-539 CNS
# [18] = system: SF-268 CNS
# [19] = system: SK-MEL-28 melanoma
# [20] = system: MDA-MB-468 breast
# [21] = system: SNB-75 CNS
# [22] = system: NCI-H522 lung
# [23] = system: SK-MEL-2 melanoma
# [24] = system: UACC-257 melanoma
# [25] = system: U251 CNS
# [26] = system: SNB-19 CNS
# [27] = system: UO-31 renal
# [28] = system: SN12C renal
# [29] = system: CAKI-1 renal
# [30] = system: EKVX NSCLC
# [31] = system: A498 renal
# [32] = system: HL-60(TB) leukemia
# [33] = system: ACHN renal
# [34] = system: MDA-MB-435
# [35] = system: IGROV1 ovarian
# [36] = system: SK-MEL-5 melanoma
# [37] = system: A549 NSCLC
# [38] = system: DU-145 prostate
# [39] = system: 786-0 renal
# [40] = system: HCC-2998 colon
# [41] = system: MALME-3M melanoma
# [42] = system: SW-620 colon
# [43] = system: HCT-116 colon
# [44] = system: MDA-MB-231 breast
# [45] = system: BT-549 breast
# [46] = system: NCI-H226 lung
# [47] = system: HOP-62 NSCLC
# [48] = system: NCI-H23 lung
# [49] = system: MCF7 breast
# [50] = system: SF-295 CNS
# [51] = system: RPMI-8226 leukemia
# [52] = system: K-562 leukemia
# [53] = system: NCI/ADR-RES ovarian
# [54] = system: CCRF-CEM leukemia
# [55] = system: PC-3 prostate
# [56] = system: HCT-15 colon
# [57] = system: RXF 393 renal
compound,measurement,setting,value
N/C(=N\c1nc2ccccc2s1)NC(=O)Nc1ccccc1[N+](=O)[O-],GI50,[1],169 nM
same,TGI,[1],781 nM
same,GI50,[2],62.1 nM
same,TGI,[2],645 nM
same,GI50,[3],4580 nM
same,TGI,[3],26300 nM
same,GI50,[4],12900 nM
same,TGI,[4],28400 nM
same,GI50,[5],195 nM
same,TGI,[5],> 51300 nM
same,GI50,[6],45.9 nM
same,TGI,[6],14000 nM
same,GI50,[7],61.5 nM
same,TGI,[7],18700 nM
same,GI50,[8],376 nM
same,TGI,[8],13100 nM
same,GI50,[9],8070 nM
same,TGI,[9],42500 nM
same,GI50,[10],51.4 nM
same,TGI,[10],9130 nM
same,GI50,[11],538 nM
same,TGI,[11],25700 nM
same,GI50,[12],69.8 nM
same,TGI,[12],11600 nM
same,GI50,[13],236 nM
same,TGI,[13],31100 nM
same,GI50,[14],60.5 nM
same,TGI,[14],14000 nM
same,GI50,[15],56.8 nM
same,TGI,[15],6760 nM
same,GI50,[16],201 nM
same,TGI,[16],9440 nM
same,GI50,[17],39.9 nM
same,TGI,[17],273 nM
same,GI50,[18],2360 nM
same,TGI,[18],36800 nM
same,GI50,[19],1200 nM
same,TGI,[19],20600 nM
same,GI50,[20],228 nM
same,TGI,[20],573 nM
same,GI50,[21],36.3 nM
same,TGI,[21],12500 nM
same,GI50,[22],33 nM
same,TGI,[22],363 nM
same,GI50,[23],32.9 nM
same,TGI,[23],3020 nM
same,GI50,[24],12200 nM
same,TGI,[24],25000 nM
same,GI50,[25],55.5 nM
same,TGI,[25],14000 nM
same,GI50,[26],151 nM
same,TGI,[26],19600 nM
same,GI50,[27],244 nM
same,TGI,[27],17100 nM
same,GI50,[28],258 nM
same,TGI,[28],12700 nM
same,GI50,[29],63.5 nM
same,TGI,[29],16100 nM
same,GI50,[30],248 nM
same,TGI,[30],17900 nM
same,GI50,[31],17200 nM
same,TGI,[31],32800 nM
same,GI50,[32],34.1 nM
same,TGI,[32],> 100000 nM
same,GI50,[33],111 nM
same,TGI,[33],16300 nM
same,GI50,[34],24.2 nM
same,TGI,[34],72.8 nM
same,GI50,[35],108 nM
same,TGI,[35],12700 nM
same,GI50,[36],52.7 nM
same,TGI,[36],1590 nM
same,GI50,[37],346 nM
same,TGI,[37],16900 nM
same,GI50,[38],327 nM
same,TGI,[38],13400 nM
same,GI50,[39],186 nM
same,TGI,[39],13600 nM
same,GI50,[40],203 nM
same,TGI,[40],6100 nM
same,GI50,[41],103 nM
same,TGI,[41],16700 nM
same,GI50,[42],52.9 nM
same,TGI,[42],19500 nM
same,GI50,[43],43.1 nM
same,TGI,[43],6060 nM
same,GI50,[44],139 nM
same,TGI,[44],4660 nM
same,GI50,[45],202 nM
same,TGI,[45],6560 nM
same,GI50,[46],571 nM
same,TGI,[46],9260 nM
same,GI50,[47],104 nM
same,TGI,[47],19600 nM
same,GI50,[48],266 nM
same,TGI,[48],16800 nM
same,GI50,[49],168 nM
same,TGI,[49],12600 nM
same,GI50,[50],55 nM
same,TGI,[50],10800 nM
same,GI50,[51],341 nM
same,TGI,[51],> 59900 nM
same,GI50,[52],42.4 nM
same,TGI,[52],> 100000 nM
same,GI50,[53],45 nM
same,TGI,[53],345 nM
same,GI50,[54],55.5 nM
same,TGI,[54],16600 nM
same,GI50,[55],143 nM
same,TGI,[55],28800 nM
same,GI50,[56],48.2 nM
same,TGI,[56],11300 nM
same,GI50,[57],47.2 nM
same,TGI,[57],499 nM
